{
  "source": "patent US20220009980A1",
  "about": "“TP5, A PEPTIDE INHIBITOR OF ABERRANT AND HYPERACTIVE CDK5/P25 AS TREATMENT FOR CANCER” (The United States of America,as represented by the …, priority 2018, published 2022)",
  "key": {"[1]": {"system": "glioblastoma cell line U251", "test": "Viability of glioblastoma cell line U251", "assay_type": "cell-based", "conditions": "FIG. 1", "description": "(§1) The viability of glioblastoma cell line U251 following the administration of TP5 (SEQ ID NO: 1) was determined. TP5 scrambled (SEQ ID NO: 2) was used as a control."}, "orthotopic glioblastoma": {"system": "orthotopic glioblastoma", "test": "Orthotopic glioblastoma mouse model", "assay_type": "in vivo", "conditions": "for proliferation rate: 100 μM or 300 μM of TP5; for tumor volume: 100 μM or 300 μM of TP5, FIG. 5", "description": "The effect of TP5 administration in an orthotopic glioblastoma mouse model additionally was determined. 100 μM or 300 μM of TP5 was administered to the mice and tumor volume and proliferation rate were investigated."}, "[2]": {"system": "subcutaneous colorectal cancer", "test": "Subcutaneous colorectal cancer mouse model", "assay_type": "in vivo", "conditions": "FIG. 9", "description": "The effect of TP5 administration alone or in combination with chemotherapy (Sn38; 7-ethyl-10-hydroxycamptothecin) in a subcutaneous colorectal cancer mouse model additionally was determined. TP5, Sn38, or TP5+Sn38 was administered to the mice and tumor volume and proliferation rate were investigated."}, "[3]": {"system": "colorectal cancer colonies", "test": "Number and viability of colorectal cancer colonies", "assay_type": "cell-based", "conditions": "different amounts of TP5; FIG. 7", "description": "(§2) The viability of colorectal carcinoma cell line HT29 following the administration of TP5 (SEQ ID NO: 1) was determined. TP5 scrambled (SEQ ID NO: 2) was used as a control."}, "[4]": {"system": "colorectal carcinoma cell line HT29", "test": "DNA damage measured by expression of pH2Ax in HT29", "assay_type": "cell-based", "conditions": "FIG. 8"}, "[5]": {"system": "glioblastoma cell line U251", "test": "DNA damage measured by expression of pH2Ax in U251", "assay_type": "cell-based", "conditions": "FIG. 4", "from_the_text": "Although not wishing to be bound by any particular theory, TP5 is believed to increase DNA damage in a dose-dependent manner and impair DNA repair by reducing G2 phase and decreasing the phosphorylation of ATM."}, "[6]": {"system": "colorectal carcinoma cell line HT29", "test": "Viability of colorectal carcinoma cell line HT29", "assay_type": "cell-based", "conditions": "FIG. 6", "description": "as §2"}, "glioblastoma colonies": {"system": "glioblastoma colonies", "test": "Number and viability of glioblastoma colonies", "assay_type": "cell-based", "conditions": "different amounts of TP5; FIG. 2", "description": "as §1"}, "[7]": {"system": "glioblastoma cell line U251", "test": "Early and late apoptosis in glioblastoma cell line U251", "assay_type": "cell-based", "conditions": "FIG. 3", "description": "The extent of early and late apoptosis in glioblastoma cell line U251 also was determined."}},
  "data": [
    {"substance": "TP5 scrambled: scrambled TP5 peptide (SEQ ID NO: 2) used as a control (FWDRCLSGKMSSKGGGINAYARAARRAARR) [reference compound]", "values": [
      {"measurement": "viability of glioblastoma cell line", "setting": "[1]", "value": "but not TP5 scrambled decreased the viability of glioblastoma cell line"},
      {"measurement": "proliferation rate", "setting": "orthotopic glioblastoma", "value": "but not TP5 scrambled decreases the tumor volume and proliferation rate"},
      {"measurement": "tumor volume", "setting": "orthotopic glioblastoma", "value": "but not TP5 scrambled decreases the tumor volume"}
    ]},
    {"substance": "TP5: P5, a small peptide that selectively inhibits aberrant and hyperactive CDK5/p25, modified to facilitate passage through blood brain barrier; SEQ ID NO: 1 (KEAFWDRCLSVINLMSSKMLQINAYARAARRAARR)", "values": [
      {"measurement": "tumor volume", "setting": "[2]", "value": "decreased the tumor volume of the mice"},
      {"measurement": "viability of glioblastoma cell line", "setting": "[1]", "value": "decreased the viability of glioblastoma cell line in a dose-dependent manner"},
      {"measurement": "number and viability of colorectal cancer colonies", "setting": "[3]", "value": "decreased the number and viability of colorectal cancer colonies in a dose-dependent manner"},
      {"measurement": "proliferation rate", "setting": "orthotopic glioblastoma", "value": "decreases the tumor volume and proliferation rate"},
      {"measurement": "tumor volume", "setting": "orthotopic glioblastoma", "value": "decreases the tumor volume"},
      {"measurement": "DNA damage as measured by expression of pH2Ax", "setting": "[4]", "value": "increases DNA damage in colorectal carcinoma cell line HT29 in a dose-dependent manner"},
      {"measurement": "DNA damage as measured by expression of pH2Ax", "setting": "[5]", "value": "increases DNA damage in glioblastoma cell line U251 in a dose-dependent manner"},
      {"measurement": "viability of colorectal carcinoma cell line", "setting": "[6]", "value": "decreased the viability of glioblastoma cell line in a dose-dependent manner"},
      {"measurement": "number and viability of glioblastoma colonies", "setting": "glioblastoma colonies", "value": "decreased the number and viability of glioblastoma colonies in a dose-dependent manner"},
      {"measurement": "early and late apoptosis", "setting": "[7]", "value": "increases the early and late apoptosis of glioblastoma cells"}
    ]}
  ]
}
